Measurements from article PMC6214026, “PSMA-Oriented Target Delivery of Novel Anticancer Prodrugs: Design, Synthesis, and Biological Evaluations of Oligopeptide-Camptothecin Conjugates” (International Journal of Molecular Sciences, 2018).
Read-outs that look alike come from different tables or passages of the source.

Key:
[1] = tested on: LNCaP-FGC cells (PSMA-expressing); assay: MTT cytotoxicity assay, LNCaP-FGC; format: cell-based, human; settings: 72 h, read-out: IC50 LNCaP-FGC
Description: (§1) The cytotoxicities of PSMA-activated prodrug CPT-HT-J-ZLn and PSMA hydrolysate CPT-D-GLn were evaluated by MTT assays on PSMA-expressing (PSMA^+) cancer cell LNCaP-FGC, non-PSMA-expressing (PSMA^−) cancer cells HepG2, MCF-7, Hela, DU145, and PC-3, and normal cells MDCK, LO2, respectively, using CPT as a positive control.
(§2) The human prostate cancer cell line (LNCaP-FGC), human prostate cancer cell line (PC-3), human prostate cancer cell line (DU-145), human breast cancer cell line (MCF-7), human hepatocellular carcinoma cell line (HepG2), human cervical cancer cell line (Hela), were obtained from the Chinese Academy of Medical Sciences and Peking Union Medical College. The cultures of the cells were maintained as a monolayer in RPMI 1640 or DMEM supplemented with 10% (v/v) heat inactivated fetal bovine serum and 1% (v/v) enicillin/streptomycin (Corning, New York, NY, USA) and incubated at 37 °C in a humidified atmosphere with 5% CO2. The tested compounds were dissolved in DMSO (Sigma, St. Louis, MO, USA) and added at required concentrations to the cell culture.
(§3) The cytotoxicity of all the tested compounds was evaluated in vitro via the MTT method against PSMA-expressing LNCaP-FGC cells and non-PSMA-expressing cells HepG2, Hela, MCF-7, DU145, PC-3 cells using CPT as the positive control. Tumor cells growing in the logarithmic phase were seeded in 96-well plates at a density 3 × 10^3 cells/well and incubated overnight. The following day, cells were then treated with serial dilutions of the tested compounds for 72 h. At the end of this incubation, 20 µL of 5 mg/mL methylthiazol tetrazolium (MTT) was added to each well and incubation proceeded at 37 °C for another 4 h. After the supernatant medium was thrown away, 150 µL dimethylsulphoxide (DMSO) were added to each well and absorbance was measured at 490 nm using a plate reader (BIORAD 550 spectrophotometer, Bio-rad Life Science Development Ltd., Berkeley, CA, USA). Experiments were performed in triplicate and the values were the average of three (n = 3) independent experiments. The concentration of the compound that results in 50% growth inhibition corresponds to the IC50. Tumor cell growth inhibitory rate was calculated using Equation (1): % inhibition = (1 − Sample group OD/Control group OD) × 100%(1)

[2] = tested on: HeLa cells (non-PSMA-expressing); assay: MTT cytotoxicity assay, HeLa; format: cell-based, human; settings: 72 h, mean ± SD, n = 3
Description: as §1
The tested compounds were dissolved in DMSO (Sigma, St. Louis, MO, USA) and added at required concentrations to the cell culture.
as §3, with “experiments.” for “experiments. The concentration of the compound that results in 50% growth inhibition corresponds to the IC50. Tumor cell growth inhibitory rate was calculated using Equation (1): % inhibition = (1 − Sample group OD/Control group OD) × 100%(1)”

LO2 cells = assay: cells; format: cell-based; settings: read-out: IC50 LO2
Description: as §1, §3

MDCK cells = assay: cells; format: cell-based; settings: 72 h, read-out: IC50 MDCK
Description: as §1, §3

[3] = tested on: HepG2 cells (non-PSMA-expressing); assay: cells; format: cell-based, human; settings: read-out: IC50 HepG2
Description: as §1, §2, §3

[4] = tested on: DU145 cells (non-PSMA-expressing); assay: cells; format: cell-based, human; settings: read-out: IC50 DU145
Description: as §1, §2, §3

[5] = tested on: PC-3 cells (non-PSMA-expressing); assay: cells; format: cell-based, human; settings: read-out: IC50 PC-3
Description: as §1, §2, §3

[6] = tested on: MCF-7 cells (non-PSMA-expressing); assay: cells; format: cell-based, human; settings: read-out: IC50 MCF-7
Description: as §1, §2, §3

Row | SMILES | IC50 ([1]; Homo sapiens) [nM] | IC50 ([2]; Homo sapiens, HeLa) [µM] | IC50 (LO2 cells; Homo sapiens, L02, 72 h) [nM] | IC50 (MDCK cells; Canis lupus familiaris, MDCK) [µM] | IC50 ([3]; Homo sapiens, HepG2, 72 h) [µM] | IC50 ([4]; Homo sapiens, DU-145, 72 h) [µM] | IC50 ([5]; Homo sapiens, PC-3, 72 h) [µM] | IC50 ([6]; Homo sapiens, MCF7, 72 h) [µM] | IC50 ([1]; MTT, mean ± SD, n = 3, PSMA+) [nM] | IC50 [2] [µM] | IC50 (LO2 cells; MTT, 72 h, normal cells) [nM] | IC50 (MDCK cells; MTT, normal cells) [µM] | IC50 ([3]; MTT, 72 h, mean ± SD, n = 3) [µM] | IC50 ([4]; MTT, 72 h, mean ± SD, n = 3) [µM] | IC50 ([5]; MTT, 72 h, mean ± SD, n = 3) [µM] | IC50 ([6]; MTT, 72 h, mean ± SD, n = 3) [µM]
1 | CC[C@@]1(OC(=O)CN)C(=O)OCc2c1cc1n(c2=O)Cc2cc3ccccc3nc2-1 [CPT-B-L2, (S)-4-ethyl-3,14-dioxo-3,4,12,14-tetrahydro-1H-pyrano[3′,4′:6,7]indolizino[1,2-b]quinolin-4-yl glycinate] | 380 ± 100 | 10 ± 2 | 5610 ± 1400 | 5.16 ± 1.2 | > 40 | 0.12 ± 0.09 | 5.19 ± 0.3 | 4.11 ± 3.09 | – | – | – | – | – | – | – | –
2 | CC[C@@]1(OC(=O)CCCN)C(=O)OCc2c1cc1n(c2=O)Cc2cc3ccccc3nc2-1 [CPT-B-L4, (S)-4-ethyl-3,14-dioxo-3,4,12,14-tetrahydro-1H-pyrano[3′,4′:6,7]indolizino[1,2-b]quinolin-4-yl 4-aminobutanoate] | 370 ± 20 | 4.37 ± 0.5 | 1360 ± 300 | 3.2 ± 2 | > 40 | 0.25 ± 0.13 | 1 ± 0.1 | 1.58 ± 2.42 | – | – | – | – | – | – | – | –
3 | CC[C@@]1(OC(=O)CCCCCN)C(=O)OCc2c1cc1n(c2=O)Cc2cc3ccccc3nc2-1 [CPT-B-L6, (S)-4-ethyl-3,14-dioxo-3,4,12,14-tetrahydro-1H-pyrano[3′,4′:6,7]indolizino[1,2-b]quinolin-4-yl 6-aminohexanoate] | 1890 ± 200 | 15 ± 0.8 | 2710 ± 380 | 5.44 ± 3 | > 40 | 3.55 ± 0.95 | 15.9 ± 1.73 | 6.76 ± 1.47 | – | – | – | – | – | – | – | –
4 | CC[C@@]1(OC(=O)CCCCCCCCCCCN)C(=O)OCc2c1cc1n(c2=O)Cc2cc3ccccc3nc2-1 [CPT-B-L12, (S)-4-ethyl-3,14-dioxo-3,4,12,14-tetrahydro-1H-pyrano[3′,4′:6,7]indolizino[1,2-b]quinolin-4-yl 12-aminododecanoate] | 1930 ± 1030 | > 40 | 2630 ± 840 | 5.2 ± 0.88 | > 40 | 7.32 ± 1.43 | 6.45 ± 0.42 | 5.76 ± 0.86 | – | – | – | – | – | – | – | –
5 | CC[C@@]1(OC(=O)CNC(=O)[C@@H](N)CCC(=O)O)C(=O)OCc2c1cc1n(c2=O)Cc2cc3ccccc3nc2-1 [CPT-D-GL2, (S)-4-amino-5-((2-(((S)-4-ethyl-3,14-dioxo-3,4,12,14-tetrahydro-1H-pyrano[3′,4′:6,7]indolizino[1,2-b]quinolin-4-yl)oxy)-2-oxoethyl)amino)-5-oxopentanoic acid] | 3680 ± 360 | > 40 | 160 ± 70 | 0.26 ± 0.14 | > 40 | 0.4 ± 0.05 | 1.5 ± 0.2 | 0.3 ± 0.05 | – | – | – | – | – | – | – | –
6 | CC[C@@]1(OC(=O)CCCNC(=O)[C@@H](N)CCC(=O)O)C(=O)OCc2c1cc1n(c2=O)Cc2cc3ccccc3nc2-1 [CPT-D-GL4, (S)-4-amino-5-((4-(((S)-4-ethyl-3,14-dioxo-3,4,12,14-tetrahydro-1H-pyrano[3′,4′:6,7]indolizino[1,2-b]quinolin-4-yl)oxy)-4-oxobutyl)amino)-5-oxopentanoic acid] | 3680 ± 500 | > 40 | 400 ± 150 | 0.23 ± 0.1 | > 40 | 4.89 ± 0.01 | 14.9 ± 1 | 4.03 ± 0.3 | – | – | – | – | – | – | – | –
7 | CC[C@@]1(OC(=O)CCCCCNC(=O)[C@@H](N)CCC(=O)O)C(=O)OCc2c1cc1n(c2=O)Cc2cc3ccccc3nc2-1 [CPT-D-GL6, (S)-4-amino-5-((6-(((S)-4-ethyl-3,14-dioxo-3,4,12,14-tetrahydro-1H-pyrano[3′,4′:6,7]indolizino[1,2-b]quinolin-4-yl)oxy)-6-oxohexyl)amino)-5-oxopentanoic acid] | 8170 ± 1000 | > 40 | 1500 ± 600 | 4 ± 0.42 | > 40 | 3.97 ± 0.16 | 12.5 ± 0.8 | 17.2 ± 3 | – | – | – | – | – | – | – | –
8 | CC[C@@]1(OC(=O)CCCCCCCCCCCNC(=O)[C@@H](N)CCC(=O)O)C(=O)OCc2c1cc1n(c2=O)Cc2cc3ccccc3nc2-1 [CPT-D-GL12, (S)-4-amino-5-((12-(((S)-4-ethyl-3,14-dioxo-3,4,12,14-tetrahydro-1H-pyrano[3′,4′:6,7]indolizino[1,2-b]quinolin-4-yl)oxy)-12-oxododecyl)amino)-5-oxopentanoic acid] | 2100 ± 680 | 25.5 ± 1 | 3800 ± 800 | 5.1 ± 1.1 | > 40 | 7.38 ± 0.2 | > 40 | > 40 | – | – | – | – | – | – | – | –
9 | CC[C@@]1(OC(=O)CNC(=O)[C@H](CCC(=O)N[C@@H](CCC(=O)N[C@@H](CCC(=O)N[C@@H](CC(=O)OC(C)(C)C)C(=O)N[C@@H](CCC(=O)OC(C)(C)C)C(=O)OC(C)(C)C)C(=O)OC(C)(C)C)C(=O)OC(C)(C)C)NC(=O)OC(C)(C)C)C(=O)OCc2c1cc1n(c2=O)Cc2cc3ccccc3nc2-1 [CPT-HT-J-L2, 14,22,24,9-tetra-tert-butyl 1-((S)-4-ethyl-3,14-dioxo-3,4,12,14-tetrahydro-1H-pyrano[3′,4′:6,7]indolizino[1,2-b]quinolin-4-yl) (4S,9S,14S,19S,22S)-19-(2-(tert-butoxy)-2-oxoethyl)-4-((tert-butoxycarbonyl)amino)-3,7,12,17,20-pentaoxo-2,8,13,18,21-pentaazatetracosane-1,9,14,22,24-pentacarboxylate] | – | – | – | – | – | – | – | – | > 40000 | > 40 | > 40000 | > 40 | > 40 | > 40 | > 40 | > 40
10 | CC[C@@]1(OC(=O)CCCNC(=O)[C@H](CCC(=O)N[C@@H](CCC(=O)N[C@@H](CCC(=O)N[C@@H](CC(=O)OC(C)(C)C)C(=O)N[C@@H](CCC(=O)OC(C)(C)C)C(=O)OC(C)(C)C)C(=O)OC(C)(C)C)C(=O)OC(C)(C)C)NC(=O)OC(C)(C)C)C(=O)OCc2c1cc1n(c2=O)Cc2cc3ccccc3nc2-1 [CPT-HT-J-L4, 1,11,16,3-tetra-tert-butyl 26-((S)-4-ethyl-3,14-dioxo-3,4,12,14-tetrahydro-1H-pyrano[3′,4′:6,7]indolizino[1,2-b]quinolin-4-yl) (3S,6S,11S,16S,21S)-6-(2-(tert-butoxy)-2-oxoethyl)-21-((tert-butoxycarbonyl)amino)-5,8,13,18,22-pentaoxo-4,7,12,17,23-pentaazahexacosane-1,3,11,16,26-pentacarboxylate] | – | – | – | – | – | – | – | – | > 40000 | > 40 | > 40000 | > 40 | > 40 | > 40 | > 40 | > 40
